Measured values published in article PMC6277767, “Broad and Region-Specific Impacts of the Synthetic Cannabinoid CP 55,940 in Adolescent and Adult Female Mouse Brains” (Frontiers in Molecular Neuroscience, 2018).

Test system: CD1 female mouse brain lipidome
Assay: Brain-region lipid levels (HPLC/MS/MS lipidomics) 2 h after single i.p. 3 mg/kg CP 55,940 vs vehicle
Type: in vivo
Set-up: N-arachidonoyl phenylalanine level, Mean / N-stearoyl tryptophan level, Mean / N-stearoyl proline level, Mean / N-stearoyl leucine level, Mean / N-stearoyl phenylalanine level, Mean / N-stearoyl serine level, Mean / N-stearoyl methionine level, Mean: unit: moles per gram
Experimental: The Bloomington Institutional Animal Care and Use Committee of Indiana University reviewed and approved the animal procedures. Female mice from the CD1 strain were utilized to match our study examining THC’s effects on the brain lipidome ([Leishman et al., 2018]). Mice were given a single i.p. injection of either 3 mg/kg CP or 1:1:18 cremophor:ethanol:saline vehicle (please refer to the section “3 mg/kg CP Is Relevant for Synthetic Cannabinoid Abuse and Has Stronger Effects on the Female Mouse Brain Lipidome During Adolescence” for a justification of dose and use of female mice). Three different age groups were given injections: PND 35 and PND 50 adolescents, and adult mice (PND 113). At least eight mice in each age group received CP and at least eight received vehicle. Matching the THC study time course ([Leishman et al., 2018]), mice were sacrificed via rapid decapitation 2 h after injection. Brains were immediately removed and flash-frozen in liquid nitrogen, and then stored at -80°C until dissections were performed. Brains were dissected on an ice-cold dissection plate into the following regions: STR, HIPP, CER, THAL, CTX, HYP, MID, and STEM. These abbreviations for these brain areas will be used exclusively when discussing the results generated by these specific dissections. Each dissected area was immediately placed in liquid nitrogen and then stored at -80°C until used for lipid extraction.
Tissue extracts were performed as previously described ([Bradshaw et al., 2006]; [Stuart et al., 2013]; [Raboune et al., 2014]; [Leishman et al., 2016a],[b], [2017], [2018]). First, samples were shock frozen in liquid nitrogen, weighed, and transferred to a centrifuge tube. The mass of the largest sample was multiplied by 50 to determine how many milliliters of HPLC-grade methanol (Fisher, Fair Lawn, NJ, United States) to add. Then, samples were spiked with 500 pmol deuterium-labeled NAGly (d8NAGly; Cayman Chemical, Ann Arbor, MI, United States). Samples were placed on ice in darkness for 2 h then individually homogenized and centrifuged at 19,000 × g for 20 min at 20°C. Supernatants were diluted with HPLC water (purified in house) to make a solution of 75% water, 25% supernatant. Lipids were partially purified on C18 solid phase extraction columns (Agilent, Palo Alto, CA, United States). A series of four elutions with 1.5 mL of 60%, 75%, 85%, and 100% methanol were collected ([Stuart et al., 2013]; [Leishman et al., 2016a],[b], [2018]).
As previously described ([Bradshaw et al., 2006]; [Tan et al., 2006]; [Smoum et al., 2010]; [Stuart et al., 2013]; [Tortoriello et al., 2013]; [Raboune et al., 2014]; [Leishman et al., 2016a],[b], [2017], [2018]), samples were analyzed using an Applied Biosystems API 3000 triple quadrupole mass spectrometer with electrospray ionization (Foster City, CA, United States). Using an Agilent XDB-C18 reversed phase analytical column and optimized mobile phase gradients, 20 μL from each elution were chromatographed. Two Shimadzu 10ADvp pumps (Columbia, MD, United States) provided the pressure for gradient elution. Mobile phase A: 20% methanol, 80% water (v/v) and 1 mM ammonium acetate (Sigma, St. Louis, MO, United States). Mobile phase B: 100% methanol, 1 mM ammonium acetate. Every method run began with 0% mobile phase B, reached 100% mobile phase B flowing at 0.2 mL/min, and gradually returned to 0% mobile phase B.
This screening library will be referred to as the lipidome when discussing data from this study. HPLC/MS/MS data were analyzed using Analyst software (Applied Biosystems) ([Bradshaw et al., 2006]; [Tan et al., 2006]; [Stuart et al., 2013]; [Tortoriello et al., 2013]; [Raboune et al., 2014]; [Leishman et al., 2016a],[b], [2017], [2018]). Chromatograms (Supplementary Figure 3) were generated by determining the retention time of analytes from the analytical column with a [M-1] or [M+1] parent peak and a fragmentation peak corresponding to the programmed values. […]

[1] = adult brainstem, 3mg/kg CP 55,940

CCCCCCC(C)(C)c1ccc([C@@H]2C[C@H](O)CC[C@H]2CCCO)c(O)c1 [CP 55,940]
N-stearoyl serine level vs vehicle (adult HIPP): ↓ (1-1.49 times lower than vehicle)
PGE2 level vs vehicle (adult HIPP): ↑ (1-1.49 times higher than vehicle)
PGE2 mean level in CP group divided by vehicle group (adult HIPP): 1.18
PGF2α level vs vehicle (adult HIPP): ↑ (1-1.49 times higher than vehicle)
number of lipids changed (adult HIPP): 12
phosphoLEA level vs vehicle (adult HIPP): ↑ (1-1.49 times higher than vehicle)
PGE2 mean level (adult HIPP, CP group): 3.37x10^-10 moles per gram
6-ketoPGF1α level vs vehicle (adult HYP): ↓↓ (1.50-1.99 times lower than vehicle)
N-arachidonoyl GABA level vs vehicle (adult HYP): ↓ (1-1.49 times lower than vehicle)
N-arachidonoyl taurine level vs vehicle (adult HYP): ↑ (1-1.49 times higher than vehicle)
N-palmitoyl phenylalanine level vs vehicle (adult HYP): ↑↑ (1.50-1.99 times higher than vehicle)
PGE2 level vs vehicle (adult HYP): ↑ (1-1.49 times higher than vehicle)
PGF2α level vs vehicle (adult HYP): ↓ (1-1.49 times lower than vehicle)
number of lipids changed (adult HYP): 7
phosphoLEA level vs vehicle (adult HYP): ↓ (1-1.49 times lower than vehicle)
2-arachidonoyl glycerol level vs vehicle (adult MID): ↓ (1-1.49 times lower than vehicle)
2-linoleoyl glycerol level vs vehicle (adult MID): ↓ (1-1.49 times lower than vehicle)
2-oleoyl glycerol level vs vehicle (adult MID): ↓ (1-1.49 times lower than vehicle)
6-ketoPGF1α level vs vehicle (adult MID): ↑ (1-1.49 times higher than vehicle)
Arachidonic acid level vs vehicle (adult MID): ↓ (1-1.49 times lower than vehicle)
N-arachidonoyl ethanolamine level vs vehicle (adult MID): ↓ (1-1.49 times lower than vehicle)
N-arachidonoyl serine level vs vehicle (adult MID): ↓↓ (1.50-1.99 times lower than vehicle)
N-linoleoyl glycine level vs vehicle (adult MID): ↓↓ (1.50-1.99 times lower than vehicle)
N-linoleoyl serine level vs vehicle (adult MID): ↓ (1-1.49 times lower than vehicle)
N-palmitoyl ethanolamine level vs vehicle (adult MID): ↓ (1-1.49 times lower than vehicle)
N-stearoyl ethanolamine level vs vehicle (adult MID): ↑ (1-1.49 times higher than vehicle)
PGE2 level vs vehicle (adult MID): ↑ (1-1.49 times higher than vehicle)
changes in lipid levels that were decreases (adult MID): 10
changes in lipid levels that were increases (adult MID): 3
percentage of lipids detected that decreased (adult MID): 18.52%
percentage of lipids detected that increased (adult MID): 5.55%
phosphoLEA level vs vehicle (adult MID): ↓ (1-1.49 times lower than vehicle)
number of lipids changed (adult MID, 54 detected): 13
2-arachidonoyl glycerol level vs vehicle (adult STEM): ↓ (1-1.49 times lower than vehicle)
2-linoleoyl glycerol level vs vehicle (adult STEM): ↓ (1-1.49 times lower than vehicle)
2-oleoyl glycerol level vs vehicle (adult STEM): ↓ (1-1.49 times lower than vehicle)
2-palmitoyl glycerol level vs vehicle (adult STEM): ↓ (1-1.49 times lower than vehicle)
Arachidonic acid level vs vehicle (adult STEM): ↓ (1-1.49 times lower than vehicle)
Linoleic acid level vs vehicle (adult STEM): ↓ (1-1.49 times lower than vehicle)
N-arachidonoyl taurine level vs vehicle (adult STEM): ↓ (1-1.49 times lower than vehicle)
N-arachidonoyl tyrosine level vs vehicle (adult STEM): ↓↓ (1.50-1.99 times lower than vehicle)
N-oleoyl ethanolamine level vs vehicle (adult STEM): ↓ (1-1.49 times lower than vehicle)
N-palmitoyl leucine level vs vehicle (adult STEM): ↑ (1-1.49 times higher than vehicle)
N-palmitoyl valine level vs vehicle (adult STEM): ↑ (1-1.49 times higher than vehicle)
Oleic Acid level vs vehicle (adult STEM): ↓ (1-1.49 times lower than vehicle)
PGE2 level vs vehicle (adult STEM): ↓ (1-1.49 times lower than vehicle)
number of lipids changed (adult STEM): 13
2-arachidonoyl glycerol level vs vehicle (adult STR): ↓ (1-1.49 times lower than vehicle)
Arachidonic acid level vs vehicle (adult STR): ↓ (1-1.49 times lower than vehicle)
N-arachidonoyl ethanolamine level vs vehicle (adult STR): ↓↓ (1.50-1.99 times lower than vehicle)
N-docosahexaenoyl ethanolamine level vs vehicle (adult STR): ↓ (1-1.49 times lower than vehicle)
N-linoleoyl ethanolamine level vs vehicle (adult STR): ↓ (1-1.49 times lower than vehicle)
N-oleoyl ethanolamine level vs vehicle (adult STR): ↓↓ (1.50-1.99 times lower than vehicle)
N-oleoyl leucine level vs vehicle (adult STR): ↑ (1-1.49 times higher than vehicle)
N-palmitoyl serine level vs vehicle (adult STR): ↓ (1-1.49 times lower than vehicle)
number of lipids changed (adult STR): 8
2-arachidonoyl glycerol level vs vehicle (adult THAL): ↓ (1-1.49 times lower than vehicle)
2-linoleoyl glycerol level vs vehicle (adult THAL): ↓ (1-1.49 times lower than vehicle)
6-ketoPGF1α level vs vehicle (adult THAL): ↑ (1-1.49 times higher than vehicle)
Arachidonic acid level vs vehicle (adult THAL): ↓ (1-1.49 times lower than vehicle)
N-arachidonoyl GABA level vs vehicle (adult THAL): ↓ (1-1.49 times lower than vehicle)
N-arachidonoyl alanine level vs vehicle (adult THAL): ↓↓ (1.50-1.99 times lower than vehicle)
N-arachidonoyl ethanolamine level vs vehicle (adult THAL): ↓ (1-1.49 times lower than vehicle)
N-arachidonoyl glycine level vs vehicle (adult THAL): ↓↓ (1.50-1.99 times lower than vehicle)
N-oleoyl ethanolamine level vs vehicle (adult THAL): ↓ (1-1.49 times lower than vehicle)
N-palmitoyl GABA level vs vehicle (adult THAL): ↑ (1-1.49 times higher than vehicle)
N-palmitoyl ethanolamine level vs vehicle (adult THAL): ↓ (1-1.49 times lower than vehicle)
N-palmitoyl leucine level vs vehicle (adult THAL): ↑ (1-1.49 times higher than vehicle)
N-palmitoyl methionine level vs vehicle (adult THAL): ↑ (1-1.49 times higher than vehicle)
N-palmitoyl valine level vs vehicle (adult THAL): ↑↑ (1.50-1.99 times higher than vehicle)
Oleic Acid level vs vehicle (adult THAL): ↓ (1-1.49 times lower than vehicle)
number of lipids changed (adult THAL): 15
changes in PG levels (adult brain): 14
changes in lipoamines derived from AA (adult brain): 20
decreases in 2-acyl glycerol levels (adult brain): 15
decreases in PG levels (adult brain): 8
decreases in free fatty acid levels (adult brain): 11
increases in PG levels (adult brain): 6
percentage of detected lipids modified with acute CP (adult brain, 406 detected): 23.89%
2-arachidonoyl glycerol, Direction (relative to Veh) [1]: ↓
2-arachidonoyl glycerol, Magnitude (x Veh level) [1]: 0.78 x Veh level
2-linoleoyl glycerol Direction (relative to Veh) [1]: ↓
2-linoleoyl glycerol Magnitude (x Veh level) [1]: 0.76 x Veh level
2-oleoyl glycerol, Direction (relative to Veh) [1]: ↓
2-oleoyl glycerol, Magnitude (x Veh level) [1]: 0.82 x Veh level
2-palmitoyl glycerol, Direction (relative to Veh) [1]: ↓
2-palmitoyl glycerol, Magnitude (x Veh level) [1]: 0.80 x Veh level
Arachidonic acid, Direction (relative to Veh) [1]: ↓
Arachidonic acid, Magnitude (x Veh level) [1]: 0.86 x Veh level
Linoleic acid, Direction (relative to Veh) [1]: ↓
Linoleic acid, Magnitude (x Veh level) [1]: 0.71 x Veh level
N-arachidonoyl GABA level, Mean [1]: 1.08E-11
N-arachidonoyl alanine level, Mean [1]: 9.45E-13
N-arachidonoyl dopamine level, Mean [1]: BDL
N-arachidonoyl ethanolamine level, Mean [1]: 1.14E-11
N-arachidonoyl glycine level, Mean [1]: 1.87E-12
N-arachidonoyl phenylalanine level, Mean [1]: 5.84E-14
N-arachidonoyl taurine Direction (relative to Veh) [1]: ↓
N-arachidonoyl taurine Magnitude (x Veh level) [1]: 0.94 x Veh level
N-arachidonoyl tyrosine, Direction (relative to Veh) [1]: ↓
N-arachidonoyl tyrosine, Magnitude (x Veh level) [1]: 0.66 x Veh level
N-docosahexaenoyl GABA level, Mean [1]: 7.61E-12
